In patent publication USRE42890E1, “Furazanobenzimidazoles” (Basilea Pharmaceutica AG, priority 2003, dated 2011):

Experiments:
[1] = system: adherent cells or suspension cells; assay: Hoechst 33342 nuclear staining (fraction of apoptotic nuclei); type: cell-based; design: key: 0 relating to no activity; 1 relating to weak activity comprising less than 70% of the cells; score 2 relating to strong activity comprising more than 70% of the cells
[2] = system: HeLa; assay: MTS proliferation assay, HeLa; type: cell-based, human; settings: 72 h incubation, read-out: MTS proliferation assay IC 50 HeLa
Method in brief: (§1)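 Absorbance at 492 nm after 3 h with MTS reagent gave proliferation. This followed 72 h compound exposure (final 0.3, 1, 3, 10 μM) at 37 °C and 7.5% CO2. Cells had been plated 24 h earlier in complete RPMI-1640 with 5% or 10% FCS.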

[3] = system: MRC5; assay: MTS proliferation assay, MRC5; type: cell-based; settings: MRC5, 72 h incubation; read-out: MTS proliferation assay IC 50 MRC5
Method in brief: (§2)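 Antiproliferative read-out by MTS (3 h, A492) after 72 h compound exposure at final 0.3–10 μM (four concentrations). Cells were plated 24 h earlier in RPMI-1640 containing 5% or 10% FCS, cultured at 37 °C with 7.5% CO2.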

[4] = system: Jurkat; assay: MTS proliferation assay, Jurkat; type: cell-based, human; settings: 72 h incubation, read-out: MTS proliferation assay IC 50 Jurkat
Method in brief: as §1

[5] = system: HT1080; assay: MTS proliferation assay, HT1080; type: cell-based, human; settings: HT1080, 72 h incubation; read-out: MTS proliferation assay IC 50 HT1080
Method in brief: as §1

[6] = system: Jily; assay: MTS proliferation assay, Jily; type: cell-based; settings: 72 h incubation, read-out: MTS proliferation assay IC 50 Jily
Method in brief: as §2

Row | Structure (SMILES) | Hoechst 33342 nuclear staining score ([1]; H460, conc 0.01 μm) | Hoechst 33342 nuclear staining score ([1]; H460, conc 0.1 μm) | Hoechst 33342 nuclear staining score ([1]; H460, conc 1 μm) | Hoechst 33342 nuclear staining score ([1]; HeLa, conc 0.01 μm) | Hoechst 33342 nuclear staining score ([1]; HeLa, conc 0.1 μm) | Hoechst 33342 nuclear staining score ([1]; HeLa, conc 1 μm) | Hoechst 33342 nuclear staining score ([1]; Jily, conc 0.01 μm) | Hoechst 33342 nuclear staining score ([1]; Jily, conc 0.1 μm) | Hoechst 33342 nuclear staining score ([1]; Jily, conc 1 μm) | Hoechst 33342 nuclear staining score ([1]; Jurkat, conc 0.01 μm) | Hoechst 33342 nuclear staining score ([1]; Jurkat, conc 0.1 μm) | Hoechst 33342 nuclear staining score ([1]; Jurkat, conc 1 μm) | Hoechst 33342 nuclear staining score ([1]; MRC5, conc 0.01 μm) | Hoechst 33342 nuclear staining score ([1]; MRC5, conc 0.1 μm) | Hoechst 33342 nuclear staining score ([1]; PBLs, conc 0.01 μm) | Hoechst 33342 nuclear staining score ([1]; PBLs, conc 0.1 μm) | Hoechst 33342 nuclear staining score ([1]; PBLs, conc 1 μm) | IC50 [2] [nM] | IC50 [3] [nM] | IC50 [4] [nM] | other results
1 | COc1ccc(C(=O)Cn2c(-c3nonc3N)nc3ccccc32)cc1OC [Example 76] | 0 | 1 (1 relating to weak activity comprising less than 70% of the cells) | 2 (score 2 relating to strong activity comprising more than 70% of the cells) | 0 | 0 | 2 (score 2 relating to strong activity comprising more than 70% of the cells) | 0 | 2 (score 2 relating to strong activity comprising more than 70% of the cells) | 2 (score 2 relating to strong activity comprising more than 70% of the cells) | 0 | 2 (score 2 relating to strong activity comprising more than 70% of the cells) | 2 (score 2 relating to strong activity comprising more than 70% of the cells) | 0 | 0 | 0 | 0 | 0 | 100 to 1000 | 100 to 1000 | 100 to 1000 | IC50 [5]: 100 to 1000 nM; IC50 [6]: 10 to 100 nM
2 | COCCOc1ccc(C(=O)Cn2c(-c3nonc3N)nc3ccccc32)cc1 [Example 77] | 0 | 0 | 2 (score 2 relating to strong activity comprising more than 70% of the cells) | 0 | 0 | 2 (score 2 relating to strong activity comprising more than 70% of the cells) | 0 | 0 | 2 (score 2 relating to strong activity comprising more than 70% of the cells) | 0 | 0 | 2 (score 2 relating to strong activity comprising more than 70% of the cells) | 0 | 0 | 0 | 0 | 0 | 100 to 1000 | 100 to 1000 | 100 to 1000 | Hoechst 33342 nuclear staining score ([1]; MRC5, conc 1 μm): 1 (1 relating to weak activity comprising less than 70% of the cells); IC50 [5]: 100 to 1000 nM; IC50 [6]: 100 to 1000 nM
3 | Nc1ccc(C(=O)Cn2c(-c3nonc3N)nc3ccccc32)cn1 [Example 78] | 2 (score 2 relating to strong activity comprising more than 70% of the cells) | 2 (score 2 relating to strong activity comprising more than 70% of the cells) | 2 (score 2 relating to strong activity comprising more than 70% of the cells) | 2 (score 2 relating to strong activity comprising more than 70% of the cells) | 2 (score 2 relating to strong activity comprising more than 70% of the cells) | 2 (score 2 relating to strong activity comprising more than 70% of the cells) | 2 (score 2 relating to strong activity comprising more than 70% of the cells) | 2 (score 2 relating to strong activity comprising more than 70% of the cells) | 2 (score 2 relating to strong activity comprising more than 70% of the cells) | 2 (score 2 relating to strong activity comprising more than 70% of the cells) | 2 (score 2 relating to strong activity comprising more than 70% of the cells) | 2 (score 2 relating to strong activity comprising more than 70% of the cells) | 1 (1 relating to weak activity comprising less than 70% of the cells) | 2 (score 2 relating to strong activity comprising more than 70% of the cells) | 0 | 0 | 0 | < 10 | < 10 | < 10 | Hoechst 33342 nuclear staining score ([1]; MRC5, conc 1 μm): 2 (score 2 relating to strong activity comprising more than 70% of the cells); IC50 [5]: < 10 nM; IC50 [6]: < 10 nM
4 | N#CCCNc1nonc1-c1nc2ccccc2n1CC(=O)c1ccc(N)nc1 [Example 79] | 2 (score 2 relating to strong activity comprising more than 70% of the cells) | 2 (score 2 relating to strong activity comprising more than 70% of the cells) | 2 (score 2 relating to strong activity comprising more than 70% of the cells) | 2 (score 2 relating to strong activity comprising more than 70% of the cells) | 2 (score 2 relating to strong activity comprising more than 70% of the cells) | 2 (score 2 relating to strong activity comprising more than 70% of the cells) | 2 (score 2 relating to strong activity comprising more than 70% of the cells) | 2 (score 2 relating to strong activity comprising more than 70% of the cells) | 2 (score 2 relating to strong activity comprising more than 70% of the cells) | 2 (score 2 relating to strong activity comprising more than 70% of the cells) | 2 (score 2 relating to strong activity comprising more than 70% of the cells) | 2 (score 2 relating to strong activity comprising more than 70% of the cells) | 1 (1 relating to weak activity comprising less than 70% of the cells) | 2 (score 2 relating to strong activity comprising more than 70% of the cells) | 0 | 0 | 0 | < 10 | < 10 | < 10 | Hoechst 33342 nuclear staining score ([1]; MRC5, conc 1 μm): 2 (score 2 relating to strong activity comprising more than 70% of the cells); IC50 [5]: < 10 nM; IC50 [6]: < 10 nM
